± gives the expanded uncertainty stated by the source.
Conditions: Liquid, isochoric method

FC(F)(F)C(F)(F)C(F)(F)F [octafluoropropane]
mass density (203.51 K, 5337.7 kPa): 1748.65 ± 1.8 kg/m3 | mass density (203.54 K, 25066 kPa): 1795.66 ± 1.9 kg/m3 | mass density (207.93 K, 30528 kPa): 1795.05 ± 1.9 kg/m3 | mass density (207.94 K, 10279 kPa): 1747.98 ± 1.8 kg/m3 | mass density (212.07 K, 14905 kPa): 1747.39 ± 1.8 kg/m3 | mass density (212.65 K, 36376 kPa): 1794.41 ± 1.9 kg/m3 | mass density (216.5 K, 40978 kPa): 1793.89 ± 1.9 kg/m3 | mass density (216.54 K, 1000.8 kPa): 1689.31 ± 1.8 kg/m3 | mass density (216.88 K, 20281 kPa): 1746.74 ± 1.8 kg/m3 | mass density (217.62 K, 2018.3 kPa): 1689.13 ± 1.8 kg/m3 | mass density (218.87 K, 3201.2 kPa): 1688.94 ± 1.8 kg/m3 | mass density (220.1 K, 4356.8 kPa): 1688.75 ± 1.8 kg/m3 | mass density (221 K, 5191.7 kPa): 1688.62 ± 1.8 kg/m3 | mass density (221.04 K, 25052 kPa): 1746.18 ± 1.8 kg/m3 | mass density (225.96 K, 30368 kPa): 1745.54 ± 1.8 kg/m3 | mass density (226.4 K, 10304 kPa): 1687.87 ± 1.8 kg/m3 | mass density (230.5 K, 35314 kPa): 1744.96 ± 1.8 kg/m3 | mass density (231.73 K, 15327 kPa): 1687.19 ± 1.8 kg/m3 | mass density (234.92 K, 39898 kPa): 1744.41 ± 1.8 kg/m3 | mass density (235.64 K, 915.8 kPa): 1615.88 ± 1.7 kg/m3 | mass density (236.89 K, 20178 kPa): 1686.54 ± 1.8 kg/m3 | mass density (237.72 K, 1980.7 kPa): 1615.62 ± 1.7 kg/m3 | mass density (239.2 K, 3133.7 kPa): 1615.41 ± 1.7 kg/m3 | mass density (240.32 K, 3992.9 kPa): 1615.26 ± 1.7 kg/m3 | mass density (241.96 K, 25015 kPa): 1685.92 ± 1.8 kg/m3 | mass density (241.97 K, 5288.2 kPa): 1615.05 ± 1.7 kg/m3 | mass density (247.06 K, 29611 kPa): 1685.32 ± 1.8 kg/m3 | mass density (248.4 K, 10248 kPa): 1614.25 ± 1.7 kg/m3 | mass density (253.05 K, 1037.7 kPa): 1548.82 ± 1.6 kg/m3 | mass density (253.35 K, 35422 kPa): 1684.57 ± 1.8 kg/m3 | mass density (254.58 K, 2042.7 kPa): 1548.62 ± 1.6 kg/m3 | mass density (254.84 K, 15219 kPa): 1613.5 ± 1.7 kg/m3 | mass density (256.2 K, 3092.6 kPa): 1548.41 ± 1.6 kg/m3 | mass density (257.67 K, 4032.3 kPa): 1548.23 ± 1.6 kg/m3 | mass density (257.99 K, 39644 kPa): 1684.03 ± 1.8 kg/m3 | mass density (259.38 K, 5163.9 kPa): 1548.03 ± 1.6 kg/m3 | mass density (260.6 K, 5918.9 kPa): 1547.89 ± 1.6 kg/m3 | mass density (261.38 K, 20247 kPa): 1612.75 ± 1.7 kg/m3 | mass density (262.2 K, 6953.3 kPa): 1547.71 ± 1.6 kg/m3 | mass density (264.92 K, 1305.5 kPa): 1498.9 ± 1.6 kg/m3 | mass density (266.69 K, 2167.6 kPa): 1498.5 ± 1.6 kg/m3 | mass density (267.42 K, 10407 kPa): 1547.12 ± 1.6 kg/m3 | mass density (267.61 K, 24742 kPa): 1612.07 ± 1.7 kg/m3 | mass density (268.4 K, 3123.5 kPa): 1498.5 ± 1.6 kg/m3 | mass density (270.01 K, 4060.3 kPa): 1498.31 ± 1.6 kg/m3 | mass density (272.1 K, 5218.8 kPa): 1498.08 ± 1.6 kg/m3 | mass density (273.85 K, 29781 kPa): 1611.39 ± 1.7 kg/m3 | mass density (274.19 K, 14632 kPa): 1546.4 ± 1.6 kg/m3 | mass density (278.85 K, 1048.7 kPa): 1431.66 ± 1.5 kg/m3 | mass density (280.31 K, 34598 kPa): 1610.69 ± 1.7 kg/m3 | mass density (280.62 K, 9990.2 kPa): 1497.18 ± 1.6 kg/m3 | mass density (280.96 K, 2016.5 kPa): 1431.43 ± 1.5 kg/m3 | mass density (282.61 K, 20193 kPa): 1545.52 ± 1.6 kg/m3 | mass density (283.12 K, 3037.6 kPa): 1431.2 ± 1.5 kg/m3 | mass density (285.2 K, 4021.6 kPa): 1430.98 ± 1.5 kg/m3 | mass density (287.19 K, 39685 kPa): 1609.96 ± 1.7 kg/m3 | mass density (287.23 K, 4975.5 kPa): 1430.78 ± 1.5 kg/m3 | mass density (289.39 K, 15154 kPa): 1496.29 ± 1.6 kg/m3 | mass density (290.43 K, 25199 kPa): 1544.72 ± 1.6 kg/m3 | mass density (294.19 K, 1027.2 kPa): 1348.77 ± 1.4 kg/m3 | mass density (296.89 K, 2032 kPa): 1348.25 ± 1.4 kg/m3 | mass density (298.14 K, 10127 kPa): 1429.72 ± 1.5 kg/m3 | mass density (298.14 K, 10227 kPa): 1432.13 ± 1.5 kg/m3 | mass density (298.15 K, 20139 kPa): 1495.43 ± 1.6 kg/m3 | mass density (298.17 K, 30128 kPa): 1543.94 ± 1.6 kg/m3 | mass density (299.56 K, 3026.3 kPa): 1348.25 ± 1.4 kg/m3 | mass density (302.24 K, 4025.2 kPa): 1348 ± 1.4 kg/m3 | mass density (305.19 K, 5144.5 kPa): 1347.73 ± 1.4 kg/m3 | mass density (305.57 K, 34457 kPa): 1543.21 ± 1.6 kg/m3 | mass density (306.47 K, 24759 kPa): 1494.63 ± 1.6 kg/m3 | mass density (308.23 K, 15310 kPa): 1431.18 ± 1.5 kg/m3 | mass density (313.2 K, 39261 kPa): 1542.45 ± 1.6 kg/m3 | mass density (316.93 K, 30165 kPa): 1493.65 ± 1.6 kg/m3 | mass density (318.2 K, 1978.9 kPa): 1206.47 ± 1.2 kg/m3 | mass density (318.2 K, 2006.9 kPa): 1206.47 ± 1.2 kg/m3 | mass density (318.2 K, 10061 kPa): 1346.6 ± 1.4 kg/m3 | mass density (318.2 K, 19323 kPa): 1427.89 ± 1.5 kg/m3 | mass density (318.2 K, 20116 kPa): 1430.27 ± 1.5 kg/m3 | mass density (318.21 K, 9971.7 kPa): 1346.6 ± 1.4 kg/m3 | mass density (322.1 K, 2987.3 kPa): 1206.16 ± 1.2 kg/m3 | mass density (325.72 K, 35057 kPa): 1492.81 ± 1.6 kg/m3 | mass density (326.06 K, 3974.1 kPa): 1205.86 ± 1.2 kg/m3 | mass density (328.08 K, 24771 kPa): 1429.38 ± 1.5 kg/m3 | mass density (329.83 K, 4928.6 kPa): 1205.58 ± 1.2 kg/m3 | mass density (330.81 K, 14738 kPa): 1345.54 ± 1.4 kg/m3 | mass density (332.72 K, 39008 kPa): 1492.14 ± 1.6 kg/m3 | mass density (339.5 K, 7422.8 kPa): 1204.86 ± 1.2 kg/m3 | mass density (341.2 K, 30200 kPa): 1425.83 ± 1.5 kg/m3 | mass density (344.83 K, 20114 kPa): 1344.37 ± 1.4 kg/m3 | mass density (353.16 K, 23269 kPa): 1343.69 ± 1.4 kg/m3 | mass density (353.16 K, 35743 kPa): 1424.77 ± 1.5 kg/m3 | mass density (353.17 K, 10953 kPa): 1203.86 ± 1.2 kg/m3

Reference: the NIST ThermoML archive (doi:10.1021/je300148f)
